In paper PMC2673211, “Nitric oxide activates ATP-sensitive potassium channels in mammalian sensory neurons: action by direct S-nitrosylation” (Molecular Pain, 2009):
Where two headings read alike, the source gives them in different places.

Key:
Format in all cases: biochemical
[1] = biological target: T1, wild-type SUR1/Kir6.2 channels (Rattus norvegicus, UniProt P70673+Q09429); assay: Inside-out patch recording of recombinant wild-type channels expressed in COS7 cells
T1 construct: A full-length Kir cDNA and a full-length SUR cDNA were subcloned into the mammalian expression vector; expressed in transfected cells; host or cells: COS7 cells (KATP channel-deficient), pcDNA3.1(-) vectors, GFP cDNA co-transfected as a separate reporter
Procedure: (§1) KATP channel-deficient COS7 cells were plated at a density of 3 × 10^5/dish (35 mm in diameter) and cultured in Dulbecco's modified Eagle's medium supplemented with 10% fetal calf serum. Rat Kir6.2 (GenBank X97041) and rat SUR1 (GenBank X97279) cDNAs were used for expression study. A truncated form of Kir6.2 lacking the last 36 amino acids at the C-terminus was obtained by polymerase chain reaction amplification. Polymerase chain reaction products were cloned into the pCR3.1 vector by using the TA cloning system (Invitrogen Corp., Carlsbad, CA, USA) and then cloned into the pcDNA3.1 (-) vector (Invitrogen Corp.) for mammalian expression. Point mutation of cysteine at position 717 (C717), C806, C1378, C1446, and C1491 within SUR1 to serine (C717S, C806S, C1378S, C1446S, and C1491S) was performed by using the Site-Directed Mutagenesis system (Invitrogen Corp.). All cDNA products were sequenced by using the BigDye terminator cycle sequencing kit and an ABI PRISM 377 DNA sequencer (Applied Biosystems, Foster City, CA) to confirm the sequence. A full-length Kir cDNA and a full-length SUR cDNA were subcloned into the mammalian expression vector pcDNA3.1 (-). For electrophysiological recordings, either wild-type or mutated pcDNA3.1 (-) Kir6.2 alone (1 μg), or pcDNA3.1 (-) Kir6.2 (1 μg) plus pcDNA3.1 (-) SUR1 (3 μg) were transfected into COS7 cells with green fluorescent protein cDNA as a reporter gene by using lipofectamine and Opti-MEN 1 reagents (Life Technologies Inc., Rockville, MD) according to the manufacturer's instructions. After transfection, cells were cultured at 37°C with 95% air and 5% CO2 for 48–72 h before being subjected to electrophysiological recordings.
(§2) We recorded current passing through single channels in inside-out or cell-attached patch configurations. In cell-attached patches, both bath and pipette (extracellular) solutions were composed of the following: 140 mM KCl, 10 mM HEPES, 5.5 mM dextrose, and 1 mM EGTA. In inside-out patches, the bath (intracellular) solution contained 140 mM KCl, 1.2 mM MgCl2, 10 mM HEPES, 1.5 mM EGTA and 5.5 mM dextrose. The pipette (extracellular) solution was of the same composition as that used in cell-attached recordings. The pH of all solutions was adjusted to 7.4 with KOH. Osmolality was adjusted approximately to 300 mOsm/l by adding sucrose if necessary. We pulled patch micropipettes from borosilicate glass capillaries using a Flaming/Brown micropipette puller, model P-97 (Sutter, San Rafael, CA) and flame polished them with a microforge polisher (Narishige, Tokyo, Japan) prior to use. Their resistance ranged between 3 and 6 MΩ when filled with the internal solution, and placed into the recording solutions.
(§3) We recorded single channel currents at room temperature (20–25°C) using an Axon CNS Multiclamp 700B amplifier, digitized them using an analog-to-digital converter (Axon CNS DigiData 1440A; Axon Instruments, Foster, CA), and stored them into a PC. Sampling frequency of single-channel data was 5 KHz with a low-pass filter (1 KHz). We used pClamp version 10.2 software (Axon Instruments) for data acquisition and analysis. […] Channel open probability (Po) was determined from the ratios of the area under the peaks in the amplitude histograms fitted by a Gaussian distribution. We calculated channel activity as NPo (where N is the number of observed channels in the patch) from data samples of either 30 s (in inside-out recordings), or 60 s (in cell-attached recordings), in the steady state. […]

[2] = biological target: T2, KATP channels in large DRG neurons (Rattus norvegicus, UniProt P70673+Q09429); assay: Excised inside-out (cell-free) patch-clamp recording of KATP channel activity
T2 construct: native KATP channels in large DRG neurons; endogenous in cells; host or cells: acutely dissociated large-diameter neurons from rat L4/L5 dorsal root ganglia (sham-operated or spinal nerve ligated animals)
Excerpt: We harvested control (L4 and L5) or axotomized (L5) ganglia, from control (SS) or hyperalgesic rats (SNL) respectively, between the 17th and 28th postoperative days. We sacrificed animals by decapitation under deep isoflurane anesthesia, excised ganglia through a lumbar incision, and at the same time confirmed accuracy of initial surgery.
For patch-clamp recordings, we placed excised DRG into separate 35 mm Petri dishes containing cold, oxygenated, Hanks Balanced Salt Solution (Gibko, Invitrogen, Grand Islan, NY), and minced them with iris scissors. We dissociated ganglia enzymatically in a solution containing 0.25 ml 0.05% w:v liberase blendzyme 2 (Roche Diagnostics Corp., Indianapolis, IN) and 0.25 ml DMEM/F12 with glutaMAX (Dulbecco's modified Eagle's medium F12; Gibco, Invitrogen Corp., Carlsbad, CA) in an incubator at 37°C for 30 min. We then removed the supernatant after centrifugation and re-incubated cells at 37°C for another 30 min in 0.2 ml 0.0625% trypsin (Sigma, St. Louis, MO) and 0.0125% deoxyribonuclease 1 (150,000 U, Sigma, St. Louis, MO) in 0.25 ml DMEM. We then isolated cells by centrifugation (600 rpm for 5 min) after adding 0.25 ml trypsin inhibitor 0.1% w:v (Sigma St. Louis, MO), and re-suspended them in a culture medium consisting of 0.5 mM glutamine, 0.02 mg/ml gentamicin (Gibco, Invitrogen Corp., Carlsbad, CA), 100 ng/ml nerve growth factor 7S (Alomone Labs, Jerusalem, Israel), 2% (vol/vol) B-27 supplement (Gibco, Invitrogen Corp., Carlsbad, CA), and 98% (vol/vol) neural basal medium A (Gibco, Invitrogen Corp., Carlsbad, CA). Finally, we plated cells onto poly-l-lysine-coated 12-mm glass coverslips (Deutsche Spiegelglas; Carolina Biologic Supply, Burlington, NC), kept them in a humidified incubator at 37°C with 95% air and 5% CO2, and studied them within 3–8 h of dissociation.
We visualized plated neurons using an inverted Nikon Diaphot 300 microscope with Hoffman modulation optic system. We selected only large diameter neuronal somata (≥ 40 μm in diameter) because we have previously shown that only these develop KATP current alterations, as well as changes indicative of increased excitability after painful-like nerve injury by SNL [74]. Large neuronal somata, roughly correspond to large, myelinated Aβ fibers.
as §2
We recorded single channel currents at room temperature (20–25°C) using an Axon CNS Multiclamp 700B amplifier, digitized them using an analog-to-digital converter (Axon CNS DigiData 1440A; Axon Instruments, Foster, CA), and stored them into a PC. Sampling frequency of single-channel data was 5 KHz with a low-pass filter (1 KHz). We used pClamp version 10.2 software (Axon Instruments) for data acquisition and analysis. We applied a conventional 50% current amplitude threshold level criterion to determine open events. Channel open probability (Po) was determined from the ratios of the area under the peaks in the amplitude histograms fitted by a Gaussian distribution. […]

[3] = biological target: T3, SUR1-C717S/Kir6.2 channels (Rattus norvegicus, UniProt P70673+Q09429, C717S); assay: Inside-out patch recording of mutated channels expressed in COS7 cells; conditions: n = 7
T3 construct: A full-length Kir cDNA and a full-length SUR cDNA were subcloned into the mammalian expression vector; expressed in transfected cells; host or cells: COS7 cells, pcDNA3.1(-) vectors, GFP cDNA co-transfected as a separate reporter
Procedure: as §1, §2, §3

T2 sequence (Q09429 whole entry): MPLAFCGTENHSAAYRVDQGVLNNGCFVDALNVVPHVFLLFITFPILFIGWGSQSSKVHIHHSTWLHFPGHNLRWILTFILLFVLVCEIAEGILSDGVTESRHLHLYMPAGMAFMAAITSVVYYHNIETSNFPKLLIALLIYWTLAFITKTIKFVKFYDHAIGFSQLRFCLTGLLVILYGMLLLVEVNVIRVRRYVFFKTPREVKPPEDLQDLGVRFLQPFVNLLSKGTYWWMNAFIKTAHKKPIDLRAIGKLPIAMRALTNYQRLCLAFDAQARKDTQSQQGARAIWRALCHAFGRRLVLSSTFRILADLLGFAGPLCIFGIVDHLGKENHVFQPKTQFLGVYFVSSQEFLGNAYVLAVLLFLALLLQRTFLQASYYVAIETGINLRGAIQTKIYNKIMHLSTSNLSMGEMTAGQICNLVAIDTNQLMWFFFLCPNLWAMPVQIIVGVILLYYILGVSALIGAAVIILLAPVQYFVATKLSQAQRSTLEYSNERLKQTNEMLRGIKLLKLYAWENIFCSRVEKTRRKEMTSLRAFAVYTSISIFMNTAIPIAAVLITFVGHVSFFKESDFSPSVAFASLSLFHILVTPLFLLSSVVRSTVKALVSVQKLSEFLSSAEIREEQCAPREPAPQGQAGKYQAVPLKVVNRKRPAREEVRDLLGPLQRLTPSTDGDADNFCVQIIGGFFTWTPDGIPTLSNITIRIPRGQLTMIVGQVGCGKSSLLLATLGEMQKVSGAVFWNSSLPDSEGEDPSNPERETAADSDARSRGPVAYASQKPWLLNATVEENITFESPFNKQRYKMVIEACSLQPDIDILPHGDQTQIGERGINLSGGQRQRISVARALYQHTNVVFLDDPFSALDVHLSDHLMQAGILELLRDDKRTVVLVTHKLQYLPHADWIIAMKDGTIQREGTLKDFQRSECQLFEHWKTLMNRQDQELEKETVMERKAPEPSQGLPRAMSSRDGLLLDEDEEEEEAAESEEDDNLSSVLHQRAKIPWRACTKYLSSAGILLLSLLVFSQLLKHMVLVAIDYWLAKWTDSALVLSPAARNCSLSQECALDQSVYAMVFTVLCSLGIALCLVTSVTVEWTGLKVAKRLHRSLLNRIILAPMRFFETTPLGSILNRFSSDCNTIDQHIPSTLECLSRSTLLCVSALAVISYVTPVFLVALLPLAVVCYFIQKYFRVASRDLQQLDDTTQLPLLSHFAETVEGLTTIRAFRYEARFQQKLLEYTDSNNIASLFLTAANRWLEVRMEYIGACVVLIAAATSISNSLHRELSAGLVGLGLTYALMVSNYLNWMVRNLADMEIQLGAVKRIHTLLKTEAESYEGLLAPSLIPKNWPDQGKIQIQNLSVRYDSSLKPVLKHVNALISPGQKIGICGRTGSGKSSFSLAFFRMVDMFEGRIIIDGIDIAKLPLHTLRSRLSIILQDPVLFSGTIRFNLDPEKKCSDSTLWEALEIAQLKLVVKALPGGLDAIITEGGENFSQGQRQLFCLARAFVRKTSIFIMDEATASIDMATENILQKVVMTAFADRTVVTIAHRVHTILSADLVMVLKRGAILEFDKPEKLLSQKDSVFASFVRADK
T2 sequence (P70673 whole entry): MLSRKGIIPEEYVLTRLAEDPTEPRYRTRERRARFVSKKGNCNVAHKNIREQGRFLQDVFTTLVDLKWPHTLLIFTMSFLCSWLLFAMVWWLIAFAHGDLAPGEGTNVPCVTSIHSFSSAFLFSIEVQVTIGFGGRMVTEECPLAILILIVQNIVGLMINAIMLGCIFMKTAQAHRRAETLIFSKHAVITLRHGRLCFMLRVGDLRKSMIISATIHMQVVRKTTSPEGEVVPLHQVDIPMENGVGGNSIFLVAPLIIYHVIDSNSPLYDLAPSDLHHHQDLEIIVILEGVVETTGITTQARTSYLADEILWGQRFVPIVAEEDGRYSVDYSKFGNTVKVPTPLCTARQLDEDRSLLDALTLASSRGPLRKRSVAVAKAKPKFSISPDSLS
T1 sequence (Q09429 whole entry): as the sequence (Q09429 whole entry) above
T1 sequence (P70673 whole entry): as the sequence (P70673 whole entry) above
T3 sequence (Q09429 whole entry C717S): as the sequence (Q09429 whole entry) above, with C717S counted along it
T3 sequence (P70673 whole entry): as the sequence (P70673 whole entry) above

effect on recombinant channel currents ([1]; 1 mM [ATP]i, COS7 cells, inside-out): strongly inhibited
IC50 ([1]; n = 7, read-out: ATP-sensitivity IC50): 11.6 µM
effect on channel activity in inside-out patches ([2]; ATP 1 mM, SS and SNL, -60 mV): reversibly blocked
IC50 ([2]; SNL neurons, various intracellular ATP concentrations, n = 5, read-out: ATP sensitivity IC50): 18.1 µM
IC50 ([2]; SS neurons, various intracellular ATP concentrations, n = 5, read-out: ATP sensitivity IC50): 14.7 µM
IC50 ([2]; absence of SNAP, SS neurons, n = 7, read-out: IC50 value for [ATP]i): 12.8 µM
IC50 ([2]; presence of SNAP, SS neurons, n = 7, read-out: IC50 value for [ATP]i): 54.4 µM
effect on recombinant channel currents ([3]; 1 mM [ATP]i): strongly inhibited
IC50 ([3]; read-out: ATP-sensitivity IC50): 13.1 µM
Compound: Nc1ncnc2c1ncn2[C@@H]1O[C@H](COP(=O)(O)OP(=O)(O)OP(=O)(O)O)[C@@H](O)[C@H]1O [ATP]
